In the supplement of paper PMC4862054:

Experiments:
Experiment in all cases: drug sensitivity score (DSS), CellTox Green (DSS (AUC-based score)); higher = stronger drug effect (viability inhibition or cytotoxicity); extreme values may be limits of the assay
Details in all cases: incubation time: 72 h
[1] = tested on: MDA-MB-231
Summary of the method: (§1)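 Each compound occupied 5 concentrations in 10-fold steps over its own 10,000-fold range in 384-well plates, into which breast cancer cell lines were seeded as 20 µl suspension. Following 72 h of incubation, CellTox Green fluorescence (485/520 nm) was measured, and CellTiter-Glo luminescence was measured after 10 min at room temperature. Plates were individually normalised to 0.1 % DMSO and a positive kill control. From the area under the fitted dose-response curve, a drug sensitivity score was calculated.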

[2] = tested on: BT-549
Summary of the method: as §1

[3] = tested on: MDA-MB-436
Summary of the method: as §1

[4] = tested on: HDQ-P1
Summary of the method: as §1

[5] = tested on: HCC1143
Summary of the method: as §1

[6] = tested on: CAL-120
Summary of the method: as §1

[7] = tested on: CAL-51
Summary of the method: as §1

[8] = tested on: MCF-10A
Summary of the method: as §1

[9] = tested on: MDA-MB-453
Summary of the method: as §1

[10] = tested on: DU-4475
Summary of the method: as §1

[11] = tested on: MDA-MB-468
Summary of the method: as §1

[12] = tested on: BT-474
Summary of the method: as §1

[13] = tested on: Hs578T
Summary of the method: as §1

[14] = tested on: HCC1599
Summary of the method: as §1

[15] = tested on: HCC1937
Summary of the method: as §1

| SMILES | drug sensitivity score [1] | drug sensitivity score [2] | drug sensitivity score [3] | drug sensitivity score [4] | drug sensitivity score [5] | drug sensitivity score [6] | drug sensitivity score [7] | drug sensitivity score [8] | drug sensitivity score [9] | drug sensitivity score [10] | drug sensitivity score [11] | drug sensitivity score [12] | drug sensitivity score [13] | drug sensitivity score [14] | drug sensitivity score [15] |
| --- | --- | --- | --- | --- | --- | --- | --- | --- | --- | --- | --- | --- | --- | --- | --- |
| CC1(C)CCC(CN2CCN(c3ccc(C(=O)NS(=O)(=O)c4ccc(NCC5CCOCC5)c([N+](=O)[O-])c4)c(Oc4cnc5[nH]ccc5c4)c3)CC2)=C(c2ccc(Cl)cc2)C1 [ABT-199] | 3.14 | 1.45 | 0 | 0 | 0 | 0.378 | 0 | 0 | 0 | 0 | 13.3 | 0 | 0 | 0 | – |
| Cn1cc(C2=Nc3cc(NC(=O)C(N)C4CCCCC4)cc4c3C2=CNNC4=O)cn1 (stereo not drawn) | 8.99 | 4.35 | 0 | 7.95 | 0 | 1.7 | 11 | 16.2 | 3.06 | 0 | 3.14 | 0 | 1.58 | 0 | 0 |
| CC(=O)O[C@@]12CO[C@@H]1C[C@H](O)[C@@]1(C)C(=O)[C@H](O)C3=C(C)[C@@H](OC(=O)[C@H](O)[C@@H](NC(=O)OC(C)(C)C)c4ccccc4)C[C@@](O)([C@@H](OC(=O)c4ccccc4)[C@H]21)C3(C)C [Docetaxel] | 31 | 11.4 | 0 | 6.92 | 5.08 | 0.904 | 26.2 | 19.1 | 0 | 0 | 0 | 11.8 | 19.2 | 0 | 1.03 |
| Oc1ncnc2[nH]ncc12 [Allopurinol] | 0 | 0 | 0 | 0 | 0 | 0 | 0 | 0 | – | 0 | 0 | 0 | 0 | 0 | 0 |
| Cc1ccc([N+](=O)[O-])cc1S(=O)(=O)N(C)/N=C/c1cnc2ccc(Br)cn12 [PIK-75] | 40 | 16.9 | 0 | 11.6 | 9.38 | 2.85 | 36.9 | 32.7 | 7.11 | 7.23 | 19.6 | 20.3 | 25.2 | 7.69 | 2.32 |
| CC(=O)N(O)CCCCCNC(=O)CCC(=O)N(O)CCCCCNC(=O)CCC(=O)N(O)CCCCCN [Deferoxamine] | 0 | 0 | 0 | 0 | 0 | 0 | 4.29 | 0 | 0 | 0 | 0 | 0 | 0 | 0 | 0 |
| CC(=O)c1c(C)c2cnc(Nc3ccc(N4CCNCC4)cn3)nc2n(C2CCCC2)c1=O [Palbociclib] | 0 | 0 | 0 | 0 | 0 | 0 | 0 | 0 | 0 | 0 | 0 | 0 | 0 | 0 | 0 |
| O=C1CN2Cc3c(ccc(Cl)c3Cl)N=C2N1 [Anagrelide] | 0 | 0 | 0 | 0 | 0 | 0 | 14.2 | 0 | 0 | 0 | 0 | 0 | 0 | 0 | 0 |
| Cn1cnc2c(F)c(Nc3ccc(Br)cc3Cl)c(C(=O)NOCCO)cc21 [Selumetinib] | 13.2 | 0 | 0 | 2.06 | 0 | 2 | 0 | 0 | 0 | 8.17 | 6.94 | 0 | 0 | 0 | 0 |
| CC1=C2C[C@H]3[C@@H](CC=C4C[C@@H](O)CC[C@@]43C)[C@@H]2CC[C@]12O[C@@H]1C[C@H](C)CN[C@H]1[C@H]2C [Cyclopamine] | 0 | 0 | 0 | 0 | 2.47 | 0 | 0 | 0 | 0 | 0 | 0 | 0 | 0 | 0 | – |
| COc1cc2c(cc1O)CC[C@@H]1[C@@H]2CC[C@]2(C)[C@@H](O)CC[C@@H]12 [2-methoxyestradiol] | 13.2 | 0.838 | 0 | 0 | 0 | 0.794 | 4.37 | 1.69 | 0 | 0 | 0 | 3.99 | 8.52 | 0 | 0 |
| C[C@]1(O)C[C@@H](c2nc(-c3ccc4ccc(-c5ccccc5)nc4c3)c3c(N)nccn32)C1 [Linsitinib] | 4.69 | 0 | 14.3 | 0 | 0 | 0 | 0 | 0 | 0 | 0 | 0 | 0 | 2.22 | 0 | 0 |
| O=NN(CCCl)C(=O)NCCCl [Carmustine] | 0 | 0 | 0 | 0 | 0 | 0 | 0 | 0 | 0 | 0 | 0 | 0 | 0 | 0 | 0 |
| Cc1sc2c(c1C)C(c1ccc(Cl)cc1)=N[C@@H](CC(=O)OC(C)(C)C)c1nnc(C)n1-2 [(+)JQ1] | 0 | 0 | 0 | 0 | 0 | 1.56 | 6.31 | 0 | 0 | 1.14 | 8.47 | 0 | 0 | 0 | 13.4 |
| CC1(C)CNc2cc(NC(=O)c3cccnc3NCc3ccncc3)ccc21 [Motesanib] | 0 | 0 | 0 | 0 | 0 | 0 | 0 | 0 | 0 | 0 | 0 | 0 | 0 | 0 | 0 |
| CC[C@@H]1C(=O)OC[C@@H]1Cc1cncn1C [Pilocarpine] | 0 | 0 | 0 | 0 | 0 | 0 | 0 | 0 | 0 | 0 | – | 0 | – | 0 | 0 |
| CC(C)(C)c1cnc(CSc2cnc(NC(=O)C3CCNCC3)s2)o1 [SNS-032] | 30.8 | 7.86 | 0 | 11.4 | 0 | 0 | 15.1 | 16.3 | 0 | 0 | 3.58 | 0 | 17.1 | 0 | 0 |
| Nc1nc2[nH]cnc2c(=S)[nH]1 [Thioguanine] | 0 | 0 | 0 | 0 | 0 | 0 | 0 | 0 | 0 | 0 | 0 | 0 | 0 | 0 | 0 |
| C[C@]12CC[C@@H]3c4ccc(OC(=O)N(CCCl)CCCl)cc4CC[C@H]3[C@@H]1CC[C@@H]2O [Estramustine] | 0 | 2.52 | 0 | – | 0 | 0 | 6.18 | 0 | 0 | 0 | 3.38 | 0 | – | 0 | 0 |
| Nc1ncn([C@@H]2O[C@H](CO)[C@@H](O)[C@H]2O)c(=O)n1 [Azacitidine] | 0 | 0 | 1.61 | 0 | 0 | 0 | 0 | 0 | 0 | 0 | 0.523 | 1.95 | 0 | 0 | 0 |
| COc1cc(F)c(F)c(Nc2ccc(I)cc2F)c1NS(=O)(=O)C1(C[C@H](O)CO)CC1 [Refametinib] | 16.3 | 0 | 0 | 0 | 0 | 0.239 | 0 | 0 | 0 | 8.58 | 6.47 | 0 | 0 | 0 | 0 |
